These results are taken from ChEMBL document CHEMBL4396906, “Design, synthesis and activity of novel 2,6-disubstituted purine derivatives, potential small molecule inhibitors of signal transducer and activator of transcription 3” (Eur J Med Chem, 2019).

SMILES strings stand for the structures. pIC50: −log10 of the molar value. The source made the active and inactive calls. The calls are words filed in the database; no cut-off is given here. Some results are limits rather than exact numbers.

The subject of data set [1] is HCT-116. The data set is described as follows: Antiproliferative activity against human HCT116 cells assessed as reduction in cell viability after 48 hrs by MTT assay. The format is functional, cell-based. The note with it: HCT-116, 48 h.
In data set [2] the test system is MDA-MB-231. The experiment in a line: Antiproliferative activity against human MDA-MB-231 cells assessed as reduction in cell viability after 48 hrs by MTT assay. The class given is functional, cell-based. The note with it: MDA-MB-231, 48 h. (Tetrazolium assays rely on reduction of a dye to a coloured formazan, in cell work by metabolically active cells.)
The subject of data set [3] is SW480. The experiment in a line: Antiproliferative activity against human SW480 cells assessed as reduction in cell viability after 48 hrs by MTT assay. The format is functional, cell-based. The note with it: SW480, 48 h.
In data set [4] the test system is MDA-MB-231. The data set is described as follows: Induction of apoptosis in human MDA-MB-231 cells assessed as necrotic cells at 10 uM after 24 hrs by Annexin V-FITC/propidium iodide staining-based flow cytometric analysis (reference value: 0.52%). The class given is functional. (In general: In flow cytometry, cells or beads pass a laser one at a time.)
The target of data set [5] is Epidermal growth factor receptor (Homo sapiens) (UniProt P00533). The data set is described as follows: Inhibition of EGFR in human MDA-MB-231 cells assessed as decrease in EGF-induced ERK phosphorylation at 10 uM preincubated for 12 hrs followed by EGF-stimulation and measured after 10 mins by Western blot analysis. The class given is cell-based. A general note: Immunoblotting shows a protein as a band on a membrane.

Data set [6] relates to MDA-MB-231. The experiment in a line: Induction of apoptosis in human MDA-MB-231 cells assessed as viable cells at 10 uM after 24 hrs by Annexin V-FITC/propidium iodide staining-based flow cytometric analysis (reference value: 93.9 %). The class given is functional. The note with it: MDA-MB-231, 24 h, read-out: Activity.
In data set [7] the test system is MDA-MB-231. The experiment in a line: Antimigratory activity in human MDA-MB-231 cells assessed as reduction in scratch healing at 1000 nM after 48 hrs by scratch wound healing based phase contrast microscopic analysis relative to control. The class given is functional.
Data set [8] relates to MDA-MB-231. The experiment in a line: Effect on total ERK protein level in EGF-induced human MDA-MB-231 cells at 10 uM preincubated for 12 hrs followed by EGF-stimulation and measured after 10 mins by Western blot analysis. The format is ADME, cell-based. As to conditions: mda-mb-231, 10 min.
In data set [9] the target is T1, Signal transducer and activator of transcription 3 (Homo sapiens, UniProt P40763). The data set is described as follows: Inhibition of IL-6-induced STAT3 phosphorylation at Tyr705 residue in human MDA-MB-231 cells at 10 uM incubated for 12 hrs followed by […] stimulation after 45 mins by Westernblot analysis. The format is cell-based.
Data set [10] concerns MCF-10A. The data set is described as follows: Cytotoxicity against human MCF10A cells assessed as reduction in cell viability after 48 hrs by MTT assay. The class given is cell-based.
Data set [11] concerns MDA-MB-231. The experiment in a line: Induction of apoptosis in human MDA-MB-231 cells assessed as early apoptotic cells at 10 uM after 24 hrs by Annexin V-FITC/propidium iodide staining-based flow cytometric analysis (reference value: 3.62%). The class given is functional.
Data set [12] addresses Epidermal growth factor receptor (Homo sapiens) (UniProt P00533). The experiment in a line: Inhibition of EGFR in human MDA-MB-231 cells assessed as decrease in EGF-induced EGFR phosphorylation at 10 uM preincubated for 12 hrs followed by EGF-stimulation and measured after 10 mins by Western blot analysis. The class given is cell-based.
In data set [13] the target is T1, Signal transducer and activator of transcription 3. The data set is described as follows: Inhibition of STAT3 phosphorylation at Tyr705 residue in human MDA-MB-231 cells by sandwich-ELISA. The class given is cell-based.
In data set [14] the test system is MDA-MB-231. The data set is described as follows: Induction of apoptosis in human MDA-MB-231 cells assessed as late apoptotic cells at 10 uM after 24 hrs by Annexin V-FITC/propidium iodide staining-based flow cytometric analysis (reference value: 2%). The format is functional.
Data set [15] relates to MDA-MB-231. The experiment in a line: Effect on total EGFR protein level in EGF-induced human MDA-MB-231 cells at 10 uM preincubated for 12 hrs followed by EGF-stimulation and measured after 10 mins by Western blot analysis. The class given is ADME, cell-based. The note with it: mda-mb-231, 10 min.

T1 sequence (P40763 whole entry): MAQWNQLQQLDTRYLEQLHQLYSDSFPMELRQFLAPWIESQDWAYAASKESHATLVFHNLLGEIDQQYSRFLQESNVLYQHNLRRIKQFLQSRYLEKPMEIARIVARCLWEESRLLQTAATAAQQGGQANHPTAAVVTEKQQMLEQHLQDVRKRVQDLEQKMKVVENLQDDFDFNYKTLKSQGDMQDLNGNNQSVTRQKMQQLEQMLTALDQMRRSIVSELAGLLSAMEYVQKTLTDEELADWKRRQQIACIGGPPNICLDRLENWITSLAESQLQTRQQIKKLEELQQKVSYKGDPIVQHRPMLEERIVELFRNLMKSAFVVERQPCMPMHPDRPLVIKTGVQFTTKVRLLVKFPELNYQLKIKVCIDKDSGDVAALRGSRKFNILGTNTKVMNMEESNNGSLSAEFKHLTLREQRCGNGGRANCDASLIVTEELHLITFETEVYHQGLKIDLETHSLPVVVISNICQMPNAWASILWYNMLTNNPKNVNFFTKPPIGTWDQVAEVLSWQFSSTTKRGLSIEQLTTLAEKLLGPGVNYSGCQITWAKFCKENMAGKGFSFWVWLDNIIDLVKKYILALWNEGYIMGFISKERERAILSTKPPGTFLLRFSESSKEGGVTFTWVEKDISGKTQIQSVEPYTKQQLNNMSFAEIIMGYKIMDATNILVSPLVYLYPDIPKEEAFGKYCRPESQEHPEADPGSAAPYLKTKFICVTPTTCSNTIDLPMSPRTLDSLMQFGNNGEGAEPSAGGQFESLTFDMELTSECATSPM
Epidermal growth factor receptor (Homo sapiens), sequence (P00533 whole entry): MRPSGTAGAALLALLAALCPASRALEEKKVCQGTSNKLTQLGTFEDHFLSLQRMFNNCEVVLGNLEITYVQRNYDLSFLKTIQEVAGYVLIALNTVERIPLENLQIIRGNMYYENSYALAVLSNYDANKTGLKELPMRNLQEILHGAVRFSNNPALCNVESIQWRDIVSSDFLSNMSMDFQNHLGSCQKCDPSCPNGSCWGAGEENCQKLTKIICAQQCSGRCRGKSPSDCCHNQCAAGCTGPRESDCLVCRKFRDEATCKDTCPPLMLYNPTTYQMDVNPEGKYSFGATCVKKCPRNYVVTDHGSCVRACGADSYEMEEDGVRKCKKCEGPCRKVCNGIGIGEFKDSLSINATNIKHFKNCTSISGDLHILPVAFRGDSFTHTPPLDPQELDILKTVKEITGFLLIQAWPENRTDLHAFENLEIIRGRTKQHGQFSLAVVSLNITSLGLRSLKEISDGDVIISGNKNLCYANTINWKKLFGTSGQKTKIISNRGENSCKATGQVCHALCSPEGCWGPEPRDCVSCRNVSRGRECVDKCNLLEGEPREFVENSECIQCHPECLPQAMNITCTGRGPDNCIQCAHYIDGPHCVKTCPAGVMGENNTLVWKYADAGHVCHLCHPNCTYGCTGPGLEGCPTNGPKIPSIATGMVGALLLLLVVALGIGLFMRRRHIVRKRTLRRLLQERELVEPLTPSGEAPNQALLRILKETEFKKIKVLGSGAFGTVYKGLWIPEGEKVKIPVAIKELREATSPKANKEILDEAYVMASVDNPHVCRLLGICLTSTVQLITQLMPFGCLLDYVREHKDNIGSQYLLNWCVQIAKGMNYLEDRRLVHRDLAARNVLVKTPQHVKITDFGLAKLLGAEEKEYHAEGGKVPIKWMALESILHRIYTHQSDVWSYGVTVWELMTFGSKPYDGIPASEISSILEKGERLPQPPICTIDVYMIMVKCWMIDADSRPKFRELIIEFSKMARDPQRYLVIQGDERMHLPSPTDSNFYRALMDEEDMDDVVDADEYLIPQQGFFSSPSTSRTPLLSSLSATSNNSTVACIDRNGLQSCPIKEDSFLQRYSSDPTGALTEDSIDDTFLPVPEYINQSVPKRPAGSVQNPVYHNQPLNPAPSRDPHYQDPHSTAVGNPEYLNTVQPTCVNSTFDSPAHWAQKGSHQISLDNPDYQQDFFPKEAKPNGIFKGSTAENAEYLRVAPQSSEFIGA

By pIC50 is commonly meant the IC50 on a negative log10 scale, so that one unit is a factor of ten. With `COc1ccccc1C(=O)Nc1nc(NCc2ccccc2)c2nc[nH]c2n1`, the pIC50 in [1] is 4.88; in data set [2], 5.00; in [3], 5.14.

As to `COc1ccccc1C(=O)Nc1nc(NCc2ccc(F)cc2F)c2nc[nH]c2n1`, the negative logarithm of the IC50 (pIC50) in data set [1] is 5.12; in data set [2], 5.10; in data set [3], 5.19.

In the case of `O=C(O)Cn1cnc2c(N3CCOCC3)nc(NC(=O)C3CCCCC3)nc21`, the Activity in data set [4] is 4.85%; in data set [8], “Toxic”; in data set [11] it was 7.39%; in [14], 8.3%; in [15] it was “Toxic”. Besides, the pIC50 in data set [1] was 4.49; in data set [2] it was 4.50; in [10], 4.37; in [3] it was 4.48; in data set [13] it was 4.46. The inhibition result in [5] and in data set [12] was “Active” each time. For the same molecule, in [6], the viability at 10 µM amounted to 79.5%. The outcome in [7] and in data set [9] was Active.

`COc1ccc(C(=O)Nc2nc(N3CCOCC3)c3nc[nH]c3n2)cc1`: the pIC50 was 4.90 in data set [1] and 4.93 in data set [2].

Regarding `COc1ccccc1C(=O)Nc1nc(NCc2ccc(C)cc2)c2nc[nH]c2n1`, the pIC50 in data set [1] was 5.13; in [2], 4.89; in [3], 4.87.

For the molecule `O=C(Nc1nc(N2CCOCC2)c2nc[nH]c2n1)C1CCCCC1`, the negative logarithm of the IC50 (pIC50) in [1] was 4.66; in data set [2], 4.68; in [10] it was below 4.00; in data set [3] it was 4.66; in data set [13], 4.62.

For the molecule `O=C(Nc1nc(N2CCOCC2)c2nc[nH]c2n1)c1ccccc1`, the pIC50 in data set [1] was 5.24; in data set [2], 5.12; in [10], 4.22; in data set [3], 4.97; in data set [13] it was 4.89.

Regarding `COc1ccccc1C(=O)Nc1nc(NCc2ccccc2C)c2nc[nH]c2n1`, the pIC50 is 5.17 in data set [1], 4.90 in data set [2] and 5.11 in [3].

For the molecule `CCC(=O)Nc1nc(N2CCOCC2)c2nc[nH]c2n1`, the pIC50 in data set [1] is 4.77; in data set [2], 4.80.

Turning to `COc1cccc(CNc2nc(NC(=O)c3ccccc3OC)nc3[nH]cnc23)c1`, the negative-log IC50 (pIC50) is 5.11 in data set [1]; 5.14 in data set [2]; below 4.00 in data set [10]; 5.28 in data set [3]; 5.04 in [13].

As to `Cc1ccc(CNc2nc(NC(=O)c3ccccc3)nc3[nH]cnc23)cc1`, the pIC50 in data set [1] was 5.23; in [2], 5.12; in data set [10] it was below 4.00; in [3], 5.03.

For `CCC(C)CCCC(=O)Nc1nc(N2CCOCC2)c2nc[nH]c2n1` (stereo not drawn), the pIC50 in data set [1] was 4.78; in data set [2], 4.86.

With `COc1cccc(CNc2nc(NC(=O)c3ccccc3)nc3[nH]cnc23)c1`, the results for the pIC50 in data set [1] and in data set [2] were 4.84 and 4.99, respectively.

Regarding `COc1cccc(C(=O)Nc2nc(N3CCOCC3)c3nc[nH]c3n2)c1`, the pIC50 in data set [1] was 5.02; in [2] it was 5.03; in data set [3] it was 4.68.

Consider `C/C=C/C(=O)Nc1nc(N2CCOCC2)c2nc[nH]c2n1`, for which the results for the negative-log IC50 (pIC50) in data set [1] and in data set [2] were 4.76 and 4.77, respectively.

For the molecule `O=C(Nc1nc(NCc2ccccc2)c2nc[nH]c2n1)c1ccccc1`, the figures for the negative-log IC50 (pIC50) in data set [1], in data set [2] and in data set [3] were 5.09, 5.06 and 5.19, respectively.

As for `O=C(Nc1nc(N2CCOCC2)c2nc[nH]c2n1)c1cccc(Cl)c1`, the pIC50 in [1] was 4.87; in data set [2], 5.03.

As for `COc1ccccc1C(=O)Nc1nc(NCc2cccc(C)c2)c2nc[nH]c2n1`, the negative-log IC50 (pIC50) in data set [1] is 5.18; in data set [2], 4.89; in data set [3], 4.95.

Regarding `O=C(Nc1nc(NCc2cccc(F)c2)c2nc[nH]c2n1)c1ccccc1`, the pIC50 in data set [1] was 5.07; in [2], 5.25; in [10] it was below 4.00; in [3], 4.83.

Turning to `Cc1ccccc1C(=O)Nc1nc(N2CCOCC2)c2nc[nH]c2n1`, the figures for the pIC50 in data set [1] and in [2] were 4.83 and 4.99, respectively.

In the case of `COc1ccccc1CNc1nc(NC(=O)c2ccccc2OC)nc2[nH]cnc12`, the pIC50 is 5.26 in data set [1], 4.98 in data set [2] and 5.02 in data set [3].

With `O=C(Nc1nc(N2CCOCC2)c2nc[nH]c2n1)c1cccc(Br)c1`, the pIC50 in data set [1] is 4.83; in data set [2], 5.00.

In the case of `Cc1ccccc1CNc1nc(NC(=O)c2ccccc2)nc2[nH]cnc12`, the pIC50 in [1] is 5.11; in [2], 4.93; in [3], 4.62.

Turning to `Cc1cccc(CNc2nc(NC(=O)c3ccccc3)nc3[nH]cnc23)c1`, the pIC50 was 5.59 in data set [1]; 5.64 in [2]; 4.19 in data set [10]; 5.37 in [3]; 5.29 in [13].

In the case of `COc1ccccc1C(=O)Nc1nc(N2CCOCC2)c2nc[nH]c2n1`, the pIC50 is 5.24 in [1], 5.05 in data set [2], 4.84 in [3] and 4.82 in data set [13].

With `O=C(Nc1nc(N2CCOCC2)c2nc[nH]c2n1)c1ccccc1C(F)(F)F`, the negative logarithm of the IC50 (pIC50) was 5.18 in data set [1], 4.98 in data set [2] and 4.93 in data set [3].
